According to US20240343677A1, “L-ASPARTIC ACID N, N-DIACETIC ACID TETRASODIUM SALT AND PREPARATION METHOD THEREFOR” (HEFEI ALL-PLUS ENVIRONMENTAL TECNOLOGY CO., LTD., priority 2021, published 2024):

Key:
[1] = Method: FIG. 4 is a thermogravimetric analysis graph of the ASDA prepared in Example 1 of the present disclosure;
3. Thermal stability and application environment adaptability of the L-aspartic acid N,N-diacetic acid tetrasodium salt (ASDA) prepared by the preparation method provided in Example 1 were detected. […] The thermal stability of ASDA-Na4 powder was measured by thermogravimetric analysis (TGA) and differential scanning calorimetry (DSC).

[2] = Efficiency of removing calcium carbonate water scales; conditions: compared with other amino polymeric chelating agents (FIG. 6)
Text: 5. The ASDA can also be used for preventing water scale and precipitation and removing water scale.

[3] = Solubility in water of different pH values and in concentrated sodium hydroxide solution; format: physicochemical; conditions: ASDA of Example 1
Text: It can also correspondingly reduce transportation and warehousing costs, and alleviate the problem of high transportation and warehousing costs.

[4] = Chelating ability for metal ions compared with other chelating agents; format: physicochemical; conditions: same condition as other chelating agents (FIG. 5)
[5] = Biodegradability of ASDA in sewage according to OECD 301B standard; conditions: 28 days, third-party detection, ASDA of Example 1
Method: FIG. 1 is a graph of biodegradability detection results of ASDA prepared in Example 1 of the present disclosure tested in a stable sewage environment;
1. […] The detection was carried out by a third-party detection mechanism.

| Structure (SMILES) | thermal stability (thermally more stable than ASDA) [1] [°C] | efficiency of removing CaCO3 scales [2] | solubility under a strong alkali condition ([3]; concentrated sodium hydroxide solution (FIG. 3)) | solubility in low pH ([3]; water, low pH (FIG. 2)) | moisture lost ([1]; ASDA solid, all moisture lost at about 250° C., TGA) | temperature above which rapid decomposition begins ([1]; ASDA-Na4 powder, TGA/DSC) | comprehensive performance in chelating metal ions [4] | 28-day biodegradability [5] [%] |
| --- | --- | --- | --- | --- | --- | --- | --- | --- |
| O=C(O)CN(CC(=O)O)CC(=O)O [NTA, nitrilotriacetic acid, reference compound] | > 150 |  |  |  |  |  |  |  |
| O=C(O)CN(CCN(CC(=O)O)CC(=O)O)CC(=O)O [EDTA, ethylenediaminetetraacetic acid, reference compound] | > 150 |  |  |  |  |  |  |  |
| O=C([O-])C[C@@H](C(=O)[O-])N(CC(=O)[O-])CC(=O)[O-].[Na+].[Na+].[Na+].[Na+] [ASDA, L-aspartic acid N,N-diacetic acid tetrasodium salt] |  | the best biodegradable chelate for removing CaCO3 scales | high solubility | high solubility | about 4% | above 380 °C | excellent | ≥ 60 |
